Literature values, collected in US8492370B2, “Compounds and methods for their production” (Bristol-Myers Squibb Company, priority 2006, dated 2013).

Columns and labels:
Hsp90 = Hsp90 (Homo sapiens, UniProt P07900)
SKBr3 = details: compared with geldanamycin and 17-AAG
[1] = molecular target: terminal deoxynucleotidyl transferase (Homo sapiens, UniProt P04053)
Chain of terminal deoxynucleotidyl transferase (P04053 whole entry, species assumed): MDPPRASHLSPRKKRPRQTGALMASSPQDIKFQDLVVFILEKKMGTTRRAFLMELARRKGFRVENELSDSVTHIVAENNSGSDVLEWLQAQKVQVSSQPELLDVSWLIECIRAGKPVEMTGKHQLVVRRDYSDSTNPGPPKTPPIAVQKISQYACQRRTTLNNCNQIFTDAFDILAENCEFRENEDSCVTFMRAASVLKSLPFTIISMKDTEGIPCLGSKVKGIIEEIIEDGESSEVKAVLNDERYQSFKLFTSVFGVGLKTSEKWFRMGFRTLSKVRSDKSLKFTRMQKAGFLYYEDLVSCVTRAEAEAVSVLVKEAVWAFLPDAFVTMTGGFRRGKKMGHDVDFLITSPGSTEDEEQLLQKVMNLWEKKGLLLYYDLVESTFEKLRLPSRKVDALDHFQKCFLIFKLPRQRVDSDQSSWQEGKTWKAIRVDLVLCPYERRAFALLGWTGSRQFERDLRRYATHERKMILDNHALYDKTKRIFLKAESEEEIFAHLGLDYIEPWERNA

binding affinity to Hsp90, fold greater than 17-AAG (Hsp90; relative to 17-AAG) [fold] | binding affinity to Hsp90, fold greater than geldanamycin (Hsp90; relative to geldanamycin) [fold] | IC50 measurement using SKBr3 (SKBr3) | Compound | Reverse transcriptase activity inhibition (Reverse transcriptase) | terminal deoxynucleotidyl transferase activity inhibition [1]
8 | 4 | not reflected in an improvement | CO[C@H]1C[C@H](C)Cc2cc(O)cc(c2)NC(=O)/C=C/CC[C@H](OC)[C@@H](OC(N)=O)/C(C)=C/[C@H](C)[C@H]1O [KOSN1559] | – | –
– | – | – | CO[C@H]1[C@@H](OC)C[C@H](C)[C@@H](OC)C2=CC(=O)C=C(NC(=O)/C(C)=C/C=C\[C@H](C)[C@@H](OC(N)=O)/C(C)=C/[C@@H]1C)C2=O [macbecin] | not inhibited | not inhibited
